Source: US12673026B2, “Liposomal compositions and methods of use thereof for improved stability, bioavailability and sustained release” (SpecNova LLC, priority 2023, dated 2026)
One block for each compound: values may come before it.

Columns and labels:
[1] = L-carnosine stability in simulated gastric and intestinal fluids; format: physicochemical; details: for % Remaining: 10 μM, 37.0° C.
Description: Three fluids were simulated: fasted (pH 1.2) and fed (pH 3.5) simulated gastric fluid (SGF) and simulated intestinal fluid (SIF) (pH 6.8). […] A zero time point was taken after adding the appropriate stock to each fluid (N=2) and mixed by pipette. Time points were then taken at 5, 10, 15, 30, 60, 90, and 120 minutes. These were quenched with ACN and kept on ice. The samples were then added to 50% ACN in […] ammonium acetate buffer (pH=3.6) with Verapamil for Internal Standard (IS) and filtered before analysis.
Two concentrations of working stocks were made at 5000 ng/ml and 200 ng/ml. In Table 12, diluent is 50% ACN in […] ammonium acetate buffer (pH=3.6). The total analytical volume was 200 μL for all standards and samples. Six sets of QCs were used along with the samples and seven calibration standards. All were analyzed by UPLC-MS/MS on the same day as preparation.

[2] = Carnosine permeability across Caco-2 cells; format: in vitro ADME, Human; details: human; Caco-2 passage 26; 20 μM in HBSS; apical to basolateral
Description: (§1) The study was performed using Caco-2 cells at a passage number of 26 seeded on a 24-well transwell plates. The permeability of carnosine was studied at a concentration of 20 μM. Compounds were solubilized in HBSS and added to apical compartment of transwells and blank buffer on basolateral side.

Caco-2 cells [3] = assay: Carnosine permeability across Caco-2 cells; format: in vitro ADME, Human; details: Caco-2 passage 26, A-->B
Description: as §1

[4] = CoQ10 Caco-2 permeability; format: in vitro ADME, Human; details: human; Caco-2 passage 38; formulation: supernatant of 1 mg/mL in HBSS; pure compound 10 μM; apical to basolateral
Description: (§2) The study was performed using Caco-2 cells at a passage number of 38 seeded on a 24-well transwell plate. […] Instead, the formulation was added to the HBSS buffer at a concentration of 1 mg/mL, vortexed, and centrifuged for 15 min at 10,000 G-force. The supernatant was used for permeability assessment. For pure compound, the permeability study was performed at 10 μM final concentration. Compound solutions were added to the apical compartments of the transwell and blank buffer on the basolateral side. FIG. 9 provides a visual summary of this process.

Caco-2 cells [5] = assay: CoQ10 Caco-2 permeability; format: in vitro ADME, Human; details: Caco-2 passage 38, A --> B
Description: as §2

[6] = Berberine chloride Caco-2 permeability; format: in vitro ADME, Human; details: human; Caco-2 passage 38; formulation: supernatant of 1 mg/mL in HBSS; pure compound 10 μM; apical to basolateral
Description: as §2

Caco-2 cells [7] = assay: Berberine chloride Caco-2 permeability; format: in vitro ADME, Human; details: Caco-2 passage 38, A --> B
Description: as §2

[8] = Quercetin Caco-2 permeability; format: in vitro ADME, Human; details: human; Caco-2 passage 28; 20 μM in HBSS; apical to basolateral
Description: (§3) The study was performed using Caco-2 cells at a passage number of 28 seeded on a 96-well Transwell plates. Permeability was studied at a concentration of 20 μM. Compounds were solubilized in HBSS and added to apical compartment of the Transwell plate and blank buffer on basolateral side. FIG. 17 provides a visual summary of this process.

Caco-2 cells [9] = assay: Quercetin Caco-2 permeability; format: in vitro ADME, Human; details: Caco-2 passage 28, A-->B
Description: as §3

[10] = Randomized, double-blind, placebo-controlled crossover trial: plasma and leukocyte vitamin C concentration after single dose; format: in vivo, human; details: single 500 mg dose; p<0.001
Description: Venous blood samples were collected 0, 0.5-, 1-, 1.5-, 2-, 3-, 4-, 6-, 8-, 12-, and 24-hours after ingestion and were analyzed for plasma and leukocyte vitamin C concentration.

Papp A→B at 10 μM [6]: 2.17 ± 0.17 ×10⁻⁶ cm/s | Permeability Class (High/Low) (Caco-2 cells [7]): Low
Compound: COc1ccc2cc3[n+](cc2c1OC)CCc1cc2c(cc1-3)OCO2 [Sigma Aldrich Berberine Chloride, Berberine Chloride]

Papp A→B at 20 μM [8]: 8.83 ± 0.17 ×10⁻⁶ cm/s | Permeability Class (High/Low) (Caco-2 cells [9]): High
Compound: O=c1c(O)c(-c2ccc(O)c(O)c2)oc2cc(O)cc(O)c12 [USP Quercetin, quercetin]

Cmax and AUC0-24 in plasma and in leukocytes compared to placebo [10]: significantly greater
Compound: O=C1O[C@H]([C@@H](O)CO)C(O)=C1O [VIT C, L-Ascorbic acid]

The remaining lines, values behind:

Compound: NCCC(=O)N[C@@H](Cc1cnc[nH]1)C(=O)O [Carnosine, L-carnosine]
% Remaining ([1]; Fasted SGF (pH 1.2), 0 minutes): 100% | % Remaining ([1]; Fasted SGF (pH 1.2), 5 minutes): 100.3% | % Remaining ([1]; Fasted SGF (pH 1.2), 10 minutes): 95.5% | % Remaining ([1]; Fasted SGF (pH 1.2), 15 minutes): 97.5% | % Remaining ([1]; Fasted SGF (pH 1.2), 30 minutes): 94% | % Remaining ([1]; Fasted SGF (pH 1.2), 60 minutes): 99.4% | % Remaining ([1]; Fasted SGF (pH 1.2), 90 minutes): 101.5% | % Remaining ([1]; Fasted SGF (pH 1.2), 120 minutes): 96.5% | % Remaining ([1]; Fed SGF (pH 3.5), 0 minutes): 100% | % Remaining ([1]; Fed SGF (pH 3.5), 5 minutes): 103.9% | % Remaining ([1]; Fed SGF (pH 3.5), 10 minutes): 97.6% | % Remaining ([1]; Fed SGF (pH 3.5), 15 minutes): 91.9% | % Remaining ([1]; Fed SGF (pH 3.5), 30 minutes): 96.5% | % Remaining ([1]; Fed SGF (pH 3.5), 60 minutes): 102.2% | % Remaining ([1]; Fed SGF (pH 3.5), 90 minutes): 97.4% | % Remaining ([1]; Fed SGF (pH 3.5), 120 minutes): 97.4% | % Remaining ([1]; SIF (pH 6.8), 0 minutes): 100% | % Remaining ([1]; SIF (pH 6.8), 5 minutes): 96.9% | % Remaining ([1]; SIF (pH 6.8), 10 minutes): 91% | % Remaining ([1]; SIF (pH 6.8), 15 minutes): 89% | % Remaining ([1]; SIF (pH 6.8), 30 minutes): 95.8% | % Remaining ([1]; SIF (pH 6.8), 60 minutes): 103% | % Remaining ([1]; SIF (pH 6.8), 90 minutes): 100.1% | % Remaining ([1]; SIF (pH 6.8), 120 minutes): 99.1% | stability in SGF and SIF ([1]; over 120 minutes): stable | Papp A→B at 20 μM [2]: 3.05 ± 0.62 ×10⁻⁶ cm/s | Permeability Class (High/Low) (Caco-2 cells [3]): Low

Compound: COC1=C(OC)C(=O)C(C/C=C(\C)CC/C=C(\C)CC/C=C(\C)CC/C=C(\C)CC/C=C(\C)CC/C=C(\C)CC/C=C(\C)CC/C=C(\C)CC/C=C(\C)CCC=C(C)C)=C(C)C1=O [CoQ10 Reference Standard, CoQ10]
Papp A→B at 10 μM [4]: 0.2 ± 0.13 ×10⁻⁶ cm/s | Permeability Class (High/Low) (Caco-2 cells [5]): Low
